Toxic doses and inconclusive results are not listed. Rule as the data show it: active = T/C of 150% or more; inactive = T/C below 125%.
Tested on: L1210 leukemia ip in BDF1 mice, survival T/C
Experiment: NCI In Vivo Anticancer Drug Screen. Data for tumor model L1210 Leukemia (intraperitoneal) in B6D2F1 (BDF1) mice
Conditions: endpoint: mean survival time, higher = longer survival
Procedure, shortened: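 Tumor cells were implanted, animals were treated, and survival was followed. The result divides the treated measurement by the vehicle-control measurement.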

[1] = dose: 50.0 mg/kg/injection, schedule: Q01DX001 (ip), vehicle: carboxymethylcellulose (CMC)
[2] = dose: 100.0 mg/kg/injection, schedule: Q01DX001 (ip), vehicle: carboxymethylcellulose (CMC)
[3] = dose: 200.0 mg/kg/injection, schedule: Q01DX001 (ip), vehicle: carboxymethylcellulose (CMC)
[4] = dose: 100.0 mg/kg/injection, schedule: Q01DX009 (ip), vehicle: Klucel (hydroxypropylcellulose) (HPC)
[5] = dose: 200.0 mg/kg/injection, schedule: Q01DX009 (ip), vehicle: Klucel (hydroxypropylcellulose) (HPC)
[6] = dose: 400.0 mg/kg/injection, schedule: Q01DX009 (ip), vehicle: Klucel (hydroxypropylcellulose) (HPC)
[7] = dose: 100.0 mg/kg/injection, schedule: Q04DX003 (ip), vehicle: Klucel (hydroxypropylcellulose) (HPC)
[8] = dose: 200.0 mg/kg/injection, schedule: Q04DX003 (ip), vehicle: Klucel (hydroxypropylcellulose) (HPC)
[9] = dose: 400.0 mg/kg/injection, schedule: Q04DX003 (ip), vehicle: Klucel (hydroxypropylcellulose) (HPC)
[10] = dose: 100.0 mg/kg/injection, schedule: Q04DX002 (ip), vehicle: Klucel (hydroxypropylcellulose) (HPC)
[11] = dose: 200.0 mg/kg/injection, schedule: Q04DX002 (ip), vehicle: Klucel (hydroxypropylcellulose) (HPC)
[12] = dose: 100.0 mg/kg/injection, schedule: Q01DX001 (ip), vehicle: saline
[13] = dose: 12.5 mg/kg/injection, schedule: Q01DX009 (ip), vehicle: Klucel (hydroxypropylcellulose) (HPC)
[14] = dose: 25.0 mg/kg/injection, schedule: Q01DX009 (ip), vehicle: Klucel (hydroxypropylcellulose) (HPC)
[15] = dose: 25.0 mg/kg/injection, schedule: Q04DX003 (ip), vehicle: Klucel (hydroxypropylcellulose) (HPC)
[16] = dose: 50.0 mg/kg/injection, schedule: Q04DX003 (ip), vehicle: Klucel (hydroxypropylcellulose) (HPC)
[17] = dose: 100.0 mg/kg/injection, schedule: Q01DX009 (ip), vehicle: saline with Tween-80
[18] = dose: 100.0 mg/kg/injection, schedule: Q04DX003 (ip), vehicle: saline with Tween-80
[19] = dose: 200.0 mg/kg/injection, schedule: Q01DX009 (ip), vehicle: saline with Tween-80
[20] = dose: 200.0 mg/kg/injection, schedule: Q04DX003 (ip), vehicle: saline with Tween-80
[21] = dose: 400.0 mg/kg/injection, schedule: Q04DX003 (ip), vehicle: saline with Tween-80
[22] = dose: 200.0 mg/kg/injection, schedule: Q01DX001 (ip), vehicle: saline
[23] = dose: 400.0 mg/kg/injection, schedule: Q01DX001 (ip), vehicle: saline
[24] = dose: 100.0 mg/kg/injection, schedule: Q01DX009 (ip), vehicle: saline
[25] = dose: 100.0 mg/kg/injection, schedule: Q04DX003 (ip), vehicle: saline
[26] = dose: 200.0 mg/kg/injection, schedule: Q01DX009 (ip), vehicle: saline
[27] = dose: 200.0 mg/kg/injection, schedule: Q04DX003 (ip), vehicle: saline
[28] = dose: 400.0 mg/kg/injection, schedule: Q04DX003 (ip), vehicle: saline

Measured: T/C

Cc1ccc2c3c(c(=O)oc2c1)CCCC3
inactive: [1] 96 % of control | [2] 112 % of control | [3] 100 % of control | dose: 400.0 mg/kg/injection, schedule: Q01DX001 (ip), vehicle: carboxymethylcellulose (CMC) 108 % of control

CC[C@@H]1CN(C)[C@H]2Cc3c([nH]c4ccccc34)C(=O)C[C@H]1C2C(=O)OC (stereo not given in full)
inactive: dose: 75.0 mg/kg/injection, schedule: Q01DX001 (ip), vehicle: carboxymethylcellulose (CMC) 97 % of control | dose: 150.0 mg/kg/injection, schedule: Q01DX001 (ip), vehicle: carboxymethylcellulose (CMC) 95 % of control | dose: 300.0 mg/kg/injection, schedule: Q01DX001 (ip), vehicle: carboxymethylcellulose (CMC) 95 % of control

O=C1C=CC(=O)N1c1ccc(Br)cc1 (tested in a mixture with another compound)
inactive: dose: 100.0 mg/kg/injection, schedule: Q04DX003 (ip), vehicle: acetone 96 % of control | dose: 200.0 mg/kg/injection, schedule: Q04DX003 (ip), vehicle: acetone 89 % of control | dose: 400.0 mg/kg/injection, schedule: Q04DX003 (ip), vehicle: acetone 91 % of control

COCc1c(C)c(C)cc(C)c1C
inactive: [4] 96 % of control | [5] 96 % of control | [6] 91 % of control

CCOC(=O)COc1ccc(Cl)cc1
inactive: [4] 97 % of control | [5] 103 % of control | [6] 92 % of control

O=C(O)CC(SC(c1ccccc1)(c1ccccc1)c1ccccc1)C(=O)O (stereo not given)
inactive: [4] 93 % of control | [7] 98 % of control | [5] 90 % of control | [8] 102 % of control | [9] 96 % of control

C1CCN(c2c3c(nc4nnnn24)CCC3)CC1
inactive: dose: 5.0 mg/kg/injection, schedule: Q01DX001 (ip), vehicle: other 98 % of control | dose: 10.0 mg/kg/injection, schedule: Q01DX001 (ip), vehicle: other 96 % of control | dose: 20.0 mg/kg/injection, schedule: Q01DX001 (ip), vehicle: other 98 % of control | dose: 40.0 mg/kg/injection, schedule: Q01DX001 (ip), vehicle: other 110 % of control | dose: 80.0 mg/kg/injection, schedule: Q01DX001 (ip), vehicle: other 96 % of control | dose: 100.0 mg/kg/injection, schedule: Q01DX001 (ip), vehicle: other 96 % of control | dose: 200.0 mg/kg/injection, schedule: Q01DX001 (ip), vehicle: other 96 % of control

Cc1c(C(=O)O)c(-c2ccc([N+](=O)[O-])cc2)c(C=O)n1-c1ccccc1
inactive: [10] 91 % of control | [11] 97 % of control | dose: 400.0 mg/kg/injection, schedule: Q04DX002 (ip), vehicle: Klucel (hydroxypropylcellulose) (HPC) 102 % of control

C1CCC2OC3(CC2C1)OC1CCCCC1O3 (stereo not given)
inactive: dose: 75.0 mg/kg/injection, schedule: Q04DX002 (ip), vehicle: saline + alcohol 101 % of control | dose: 150.0 mg/kg/injection, schedule: Q04DX002 (ip), vehicle: saline + alcohol 116 % of control | dose: 300.0 mg/kg/injection, schedule: Q04DX002 (ip), vehicle: saline + alcohol 105 % of control

Cc1cc2nc(NC(=O)C3CC3)sc2cc1C
inactive: [4] 91 % of control | [5] 91 % of control

ON(C(=Nc1ccccc1)c1ccccc1)c1ccccc1
inactive: dose: 50.0 mg/kg/injection, schedule: Q01DX001 (ip), vehicle: saline 102 % of control | [12] 101 % of control

NC(=O)N1CCN(CCCN2c3ccccc3Sc3cc(Cl)ccc32)CC1
inactive: dose: 6.25 mg/kg/injection, schedule: Q01DX009 (ip), vehicle: Klucel (hydroxypropylcellulose) (HPC) 95 % of control | [13] 110 % of control | [14] 115 % of control | [15] 113 % of control | [16] 109 % of control | [7] 115 % of control

CCCNC(=O)Nc1cccc(Cl)c1C
inactive: [17] 102 % of control | [18] 101 % of control | [19] 94 % of control | [20] 94 % of control | dose: 400.0 mg/kg/injection, schedule: Q01DX009 (ip), vehicle: saline with Tween-80 100 % of control | [21] 100 % of control

Cc1ccc(C(=O)c2ccn[nH]2)cc1
inactive: dose: 100.0 mg/kg/injection, schedule: Q01DX001 (ip), vehicle: Klucel (hydroxypropylcellulose) (HPC) 93 % of control | [7] 96 % of control | dose: 200.0 mg/kg/injection, schedule: Q01DX001 (ip), vehicle: Klucel (hydroxypropylcellulose) (HPC) 94 % of control | [8] 93 % of control | dose: 400.0 mg/kg/injection, schedule: Q01DX001 (ip), vehicle: Klucel (hydroxypropylcellulose) (HPC) 98 % of control | [9] 96 % of control

CC(C)(CC(=O)c1ccccc1)CC(=O)c1ccccc1
inactive: [12] 109 % of control | [22] 116 % of control | [23] 98 % of control

NNS(=O)(=O)Cc1ccccc1
inactive: [12] 100 % of control | [22] 95 % of control

O=C(O)c1ccc(C(=O)c2ccccc2C(=O)O)cc1
inactive: [24] 105 % of control | [25] 102 % of control | [26] 106 % of control | [27] 112 % of control | dose: 400.0 mg/kg/injection, schedule: Q01DX009 (ip), vehicle: saline 105 % of control | [28] 101 % of control

NCc1ccccc1F
inactive: [24] 100 % of control | [25] 107 % of control | [26] 90 % of control | [27] 100 % of control | [28] 102 % of control

O=C(c1ccccn1)C(O)c1ccccn1 (stereo not given)
inactive: dose: 50.0 mg/kg/injection, schedule: Q04DX002 (ip), vehicle: Klucel (hydroxypropylcellulose) (HPC) 96 % of control | [10] 99 % of control | [11] 96 % of control

COc1cc(/C=N/NC(=O)c2ccccc2)ccc1O
inactive: [7] 100 % of control | [8] 95 % of control | [9] 94 % of control

CCCCNc1nnc(N)s1
inactive: dose: 100.0 mg/kg/injection, schedule: Q04DX002 (ip), vehicle: saline with Tween-80 98 % of control | dose: 200.0 mg/kg/injection, schedule: Q04DX002 (ip), vehicle: saline with Tween-80 98 % of control

COc1cccc(C2N(Cc3ccc(N(CCCl)CCCl)cc3C)CCCN2Cc2ccc(N(CCCl)CCCl)cc2C)c1O
inactive: [1] 116 % of control | [2] 120 % of control | [3] 100 % of control

CC(=O)C1C=NCC(C)(C)N=CC(C(C)=O)C(C)=NCCCN=C1C.[Ni] (stereo not given)
inactive: [13] 95 % of control | dose: 12.5 mg/kg/injection, schedule: Q04DX003 (ip), vehicle: Klucel (hydroxypropylcellulose) (HPC) 96 % of control | [14] 100 % of control | [15] 91 % of control | dose: 50.0 mg/kg/injection, schedule: Q01DX009 (ip), vehicle: Klucel (hydroxypropylcellulose) (HPC) 97 % of control | [16] 102 % of control

C1OCC2CCC(CC2)CO1
inactive: dose: 50.0 mg/kg/injection, schedule: Q01DX009 (ip), vehicle: saline 95 % of control | [24] 98 % of control | [26] 97 % of control

O=C(O)CSc1n[nH]c(=O)[nH]c1=O
inactive: [12] 117 % of control | [22] 97 % of control | [23] 113 % of control

CS(=O)(=O)OCCN(Cc1ccc(OS(C)(=O)=O)cc1)S(C)(=O)=O
inactive: [17] 91 % of control | [18] 109 % of control | [19] 93 % of control | [20] 95 % of control | [21] 109 % of control
